Laboratory results reported in patent publication US6982142B2, “Methods for screening therapeutically effective agents” (John Wayne Cancer Institute, priority 1997, dated 2006).
Read-outs that look alike come from different tables or passages of the source.

Key:
[1] = tested on: glucosylceramide synthase; test: Glucosylceramide synthase radioenzymatic assay on microsomes of Tet-on GCS-transfected clones; type: cell-based, human
Description: Glucosylceramide Synthase Assay. To determine the expression of GCS in the hygromycin-resistant clones, a modified radioenzymatic assay was utilized (Lavie, 1997; Shukla, 1990). After incubation in the absence or presence of doxycycline (3 μg/ml, 48 hr), cells were homogenized by sonication in lysis buffer (50 mM Tris-HCl, pH 7.4, 1.0 μg/ml leupeptin, 10 μg/ml aprotinin, 25 μM PMSF). Microsomes were isolated by centrifugation (129,000×g, 60 min). The enzyme assay, containing 50 μg microsomal protein, in a final volume of 0.2 ml, was performed in a shaking water bath at 37° C. for 60 min. The reaction contained liposomal substrate composed of C6-ceramide (1.0 mM), phosphatidylcholine (3.6 mM, MW 786.15), and brain sulfatides (0.9 mM, MW 563). The liposomal substrate was prepared by mixing the components, evaporating the solvents under a stream of nitrogen, and sonicating in water over ice for 1-min using a microtip at 50% output (Kontes, Micro Ultrasonic Cell Disrupter). Other reaction components included sodium phosphate buffer (0.1 M) pH 7.8, EDTA (2.0 mM), MgCl2 (10 mM), dithiothreitol (1.0 mM), β-NAD (2.0 mM), and [^3H]UDP-glucose (0.5 mM). Radiolabeled and unlabeled UDP-glucose were diluted to achieve the desired radiospecific activity (4,700 dpm/nmol). To terminate the reaction, tubes were placed on ice and 0.5 ml isopropanol and 0.4 ml Na2SO4 were added. After brief vortex mixing, 3 ml t-butyl methyl ether was added and the tubes were mixed for 30 sec. After centrifugation, 0.5 ml upper phase which contained GC, was withdrawn and mixed with 4.5 ml EcoLume for analysis of radioactivity by liquid scintillation spectroscopy.
After co-transfection of pTRE-GCS and pTK-Hyg into clone 1 and clone 16 of MCF-7 Tet-on cells, 65 hygromycin-resistant clones were selected. […] Compared with a basal level of 17.2±0.1 pmol GC in MCF-7 wt cells, doxycycline-induced GCS activity in MCF-7/GCS12, […] and MCF-7/GCS14 was to 167.4±17.2, 183.3±12.4, and 90.2±2.76 pmol GC, respectively (FIG. 13A). There were no differences in either basal or doxycycline-induced GCS activity in transfection control cells (TC) or in the basal level of GCS in MCF-7 wt cells (FIG. 13A). In MCF-7/GCS13 and MCF-7/GCS14, the doxycycline-inducible GCS activities were 1.6-fold and 4.1-fold, respectively, above untreated cells. The MCF-7/GCS14 clone was designated MCF-7/GCS, and this clone was used in further experiments.

[2] = tested on: GCS mRNA; test: Northern blot of GCS mRNA expression in MCF-7/GCS cells; type: cell-based, human
Description: (A) Northern Blot showing regulated expression of GCS mRNA in MCF-7 and MCF-7/GCS cells incubated with the indicated concentrations of doxycycline (dox, μg/ml). Total RNA per lane was 15 micrograms. Ethidium bromide-stained RNA (28 S) was used as a control for even loading. Densities of GCS/28 S RNA (×100) in MCF-7/GCS cells were 16, 18, 97, 256 at 0, 0.1, 1.0 and 3.0 μg/ml doxycycline, respectively. (B) Dose-response of GCS activity to doxycycline. Cells were incubated for 96 hr in medium containing the indicated concentrations of doxycycline. GCS activity was analyzed by radioenzymatic assay. * p<0.01, **p<0.001 compared with MCF-7 cells. (C) Doxycycline-induced resistance to ceramide. Cells were pretreated with the indicated concentrations of doxycycline for 48 hr, seeded in 96-well plates, and treated the following day with 5 μM C6ceramide in RPMI-1640 medium containing 5% FBS. Cell viability was determined after 96 hr. Data represent the mean ±SD of six replicates from two independent experiments. Control cells were cultured in medium without C6-ceramide. * p<0.001 compared to MCF-7 cells; **p<0.001, compared to MCF-7 cells exposed to 1.0 μg/ml doxycycline.
RNA Analysis. RNA was extracted from cells using the single-step method described by Chomczynski and Sacchi (Chomczynski, 1987). Equal amounts of total RNA (15 μg) were denatured in 59% formamide/2.2 M formaldehyde, size separated by electrophoresis on 1% agarose-formaldehyde, and then blotted onto nitrocellulose-plus (Sambrook, 1989). GCS cDNA was prepared from pCG-2 plasmid, digested with EcoR I, and Hind III (Stratagene, La Jolla, Calif.). […]
If ceramide resistance is induced by GCS expression in MCF-7/GCS cells, the resistance response should be tightly correlated with the level of the inducer, doxycycline. It was determined that increasing doxycycline concentrations correlated closely with increased expression of GCS, which in turn correlated well with increased resistance of the cells to C6ceramide. […]

[3] = tested on: MCF-7-wt cells; test: Cytotoxicity assay (Promega) in chemosensitive wild-type breast cancer cells; type: cell-based, human; details: C6-ceramide at increasing concentrations, 72 hr
[4] = tested on: MCF-7/GCS cells; type: cell-based, human; details: MCF-7/GCS vs MCF-7
Description: (§1) Cytotoxicity Assay. The assay was performed as previously described (Lavie, 1997). […] Cultures were incubated at 37° C. for 24 hr before addition of drug. Drugs were added in FBS-free medium (0.1 ml), and cells were cultured at 37° C. for the indicated periods. Drug cytotoxicity was determined using the Promega 96 Aqueous cell proliferation assay kit. Absorbance at 490 nm was recorded using an ELISA reader (Molecular Devices, San Diego, Calif.).
(§2) Adriamycin was used to assess the influence of GCS transfection on cellular response to anthracyclines. After pretreatment with doxycycline for two days, MCF-7/GCS cells were incubated with increasing concentrations of adriamycin for four days. […] It was observed that MCF-7/GCS cells were resistant to ceramide toxicity as well. […] However, the EC50 in the TC group was nearly identical with that of MCF-7 cells, there being no statistical difference between the two groups (FIG. 14C).

[5] = tested on: MCF-7 cells; test: cells; type: cell-based; details: Homo sapiens, MCF7, 96 h, read-out: EC50 (cytotoxicity)
Description: as §1, §2

[6] = tested on: MCF-7-AdrR cells; test: cells; details: Homo sapiens, read-out: cell viability
[7] = tested on: MCF-7-AdrR cells; test: Cell radiolabeling and TLC/LSC analysis of ceramide, glucosylceramide and sphingomyelin in MDR breast cancer cells; type: cell-based, human; details: adriamycin 2.5, PSC 833 5.0 μM, tamoxifen 5.0 μM alone or combined, 24 h, [3H]palmitic acid
Description: Cells. Experiments were conducted using the human MDR breast cancer cell line, MCF-7 AdrR (adriamycin resistant) provided by Drs. Kenneth H. Cowan and Merrill E. Goldsmith, National Cancer Institute. Cells were grown in RPMI-1640 medium containing 10% FBS (fetal bovine serum) and antibiotics as previously described (Lavie, 1997) and cultures were maintained in a humidified 6.5% CO2 atmosphere incubator. Trypsin (0.05%) and EDTA (0.5 mM) were used for subculture. Plastic tissue cultureware, was from Costar (96-well plates) and Corning (6-well plates, 6-cm dishes, T-75 flasks). Limited experiments were conducted using the human MDR epidermoid carcinoma cell line, KBV-1, provided by Dr. Michael M. Gottesman, National Cancer Institute. Cells were maintained as described (Lavie, 1996). Vinblastine was eliminated from the culture medium during the experiments.
Cell Radiolabeling and Lipid/Glycolipid Analysis. To follow lipid metabolism, cells were grown in the presence of tritiated ceramide precursors, L-[^3H]serine (20 Ci/mmol) (American Radiolabeled Chemicals, Inc., St. Louis), and [9, 10-^3H]palmitic acid (50 Ci/mmol) (DuPont NEN). Labeling media were prepared by adding microliter amounts of tritiated compounds (supplied in ethanol or sterile water) to medium containing only 5% FBS. After radiolabeling, 0.1 ml aliquots of medium were removed and analyzed by LSC (Lavie, 1997), in order to determine cellular uptake of the tritiated compounds. Cell monolayers were then rinsed twice with cold phosphate-buffered saline. Ice cold methanol containing 2% acetic acid was added, and cells were scraped free of the substratum (plastic scraper) for lipid extraction using chloroform and water in 1-dram glass vials as described (Lavie, 1997; Lavie, 1996; Bligh and Dyer, 1959). After centrifugation, the resulting organic lower phase of the biphasic extraction was withdrawn, transferred to a glass vial, and evaporated to dryness under a stream of nitrogen.
Radioactivity in glucosylceramide was analyzed by TLC resolution of total lipids (Silica Gel G) using a solvent system containing chloroform/methanol/ammonium hydroxide (80:20:2, v/v/v). Migration of glucosylceramide on TLC was compared with that of commercial standard (glucocerebrosides, Gaucher's spleen, Matreya, Inc., Pleasant Gap, Pa.), and lipid spots, after iodine vapor visualization, were scraped for tritium quantitation by LSC (Lavie, 1997; Lavie, 1996). […] Ceramide and sphingomyelin commercial standards (brain-derived) were from Avanti Polar Lipids, Alabaster, Ala. After iodine visualization of lipids, areas of the chromatogram corresponding to ceramide and sphingomyelin were scraped into minivials containing 0.5 ml water followed by 4.5 ml EcoLume (ICN, Costa Mesa, Calif.), and samples were analyzed for tritium by liquid scintillation spectrometry. Alternative analysis of ceramide consisted of subjecting an aliquot of the total cell lipid extract to mild alkaline hydrolysis (0.1 N KOH in methanol, 1 h at 37° C.) followed by re-extraction (Lavie, 1997). […] The same can also be done without tritium by simply applying 100-200 μg total cell lipid to TLC plates and developing them in the appropriate solvent, then spraying them with 30% H2SO4, charring the plate in an oven at 180° C. for 20 min, and measuring lipid mass by densitometry.

`C[C@H]1c2cccc(O)c2C(=O)C2=C(O)[C@]3(O)C(=O)C(C(N)=O)=C(O)[C@@H](N(C)C)[C@@H]3[C@@H](O)[C@@H]21.Cl` [doxycycline, Doxycycline hydrochloride] was tested, and the “doxycycline-induced GCS activity” value ([1]; clone MCF-7/GCS3 (so in the source), doxycycline 3 μg/ml) was 183.3±12.4 pmol GC, the “doxycycline-induced GCS activity” value ([1]; clone MCF-7/GCS12, doxycycline 3 μg/ml) was 167.4±17.2 pmol GC and the “doxycycline-inducible GCS activity above untreated cells” value ([1]; clone MCF-7/GCS13) was 1.6 fold. For the same compound, the “doxycycline-inducible GCS activity above untreated cells” value ([1]; clone MCF-7/GCS14) was 4.1 fold, the “doxycycline-induced GCS activity” value ([1]; clone MCF-7/GCS14, doxycycline 3 μg/ml) was 90.2±2.76 pmol GC and the “GCS mRNA density (GCS band/28 S RNA×100)” value ([2]; doxycycline 0.1 μg/ml) was 18. For the same compound, the “GCS mRNA density (GCS band/28 S RNA×100)” value ([2]; doxycycline 1.0 μg/ml) was 97 and the “GCS mRNA density (GCS band/28 S RNA×100)” value ([2]; doxycycline 3.0 μg/ml) was 256.

With `CCCCCCCCCCCCC/C=C/[C@@H](O)[C@H](CO)NC(=O)CCCCC` [C6-ceramide, N-hexanoylsphingosine] the “cell viability, dose-response” value [3] was “dose dependent decrease in viability”, the “EC50 in MCF-7/GCS cells relative to EC50 in MCF-7 cells” value [4] was 4 fold and the “EC50 in MCF-7/GCS cells relative to EC50 in MCF-7 cells” value ([4]; listed as ceramide) was 5 fold. The EC50 [5] was 3.1 ± 0.5 µM, the viability at 10 µM ([6]; 72 h) was 84% and the viability at 5 µM [6] was 86%.

For `CC/C(=C(\c1ccccc1)c1ccc(OCCN(C)C)cc1)c1ccccc1` [tamoxifen, Tamoxifen], the “ceramide level, increase over control” value [7] was 0.3 fold.
